# Assay results published in US10668049B2, “Methods of treating cognitive decline with transforming growth factor beta inhibitors” (The Regents of the University of California, priority 2008, dated 2020).
# Columns and labels:
# [1] = tested on: albumin-induced epileptogenesis; assay: EEG recording from awake rats during albumin-induced epileptogenesis; format: in vivo, rat
# [2] = tested on: cortical slices; assay: Extracellular potassium accumulation in cortical slices measured with ion-sensitive microelectrodes; format: cell-based, rat; details: slices 24 h following treatment with albumin; frequencies ≥10 Hz
# Method: Electrophysiological recordings were obtained 6-10 h following perfusion with sACSF. Control slices were treated similarly, using sACSF without albumin. For extracellular recordings, glass microelectrodes (˜3 MΩ, 154 mM NaCl) were positioned in layer 4 of the neocortex. Slices were stimulated with brief (100 μs) pulses, by using bipolar stimulation electrodes placed at the border between white and gray matter in the same conical column. Trains of 50 stimuli were applied at 2, 5, 10, 20, 50 and 100 Hz, at 2.5× threshold stimulation intensity. […] Extracellular potassium concentrations ([K+]o) were measured with ion-sensitive microelectrodes (ISMEs; Lux and Neher, 1973: Jauch et al., 2002).
# To study K^+ clearance from the extracellular space, K clearance was recorded from control and treated slices (24 h following treatment with albumin) by using ISMEs. Slower decay kinetics of [K^+]o in response to pressure application in BBB-treated animals has been reported (Ivens et al., 2007). Here, [K]o accumulation during neuronal activation at different frequencies of stimulation was tested. In slices from control animals, the increase in [K^+]o was limited to 25% of baseline levels (<3.75 mM) at all stimulation frequencies with the employed stimulation intensities and number of stimuli.
# [3] = tested on: neocortical slices; assay: Field potential recordings of epileptiform activity in neocortical slices; format: cell-based, rat
# Method: Brain slices for the in vitro experiments were prepared by means of standard techniques (Ivens et al., 2007; Pavlovsky et al., 2003; Seiffert et al., 2004). Slices were transferred to a recording chamber where they were incubated in aCSF containing BSA (6.7 mg/ml), TGF-β1 (10 ng/ml) or artificial serum (aSerum, composition based on aCSF with the following changes, composition in mM: 0.8 MgSO4, 1.3 CaCl2, 5.7 KCl, 1 L-glutamine, 0.1 albumin). To block the activity of TGF-β1, slices were incubated in aCSF containing SB431542 (10 μM) before the addition of TGF-β1 (10 ng/ml). To block TGF-βRs, slices were incubated in aCSF containing SB431542 (10 μM) and TGF-βRII antibody (10 μg/ml) for 30 min followed by incubation in BSA in the presence of TGF-βR blockers. For detection of epileptiform activity, field potentials were recorded >4 h following incubation in cortical layer IV using extracellular glass microelectrodes (˜3 MΩ) in response to bipolar stimulation at the border of white and grey matter.
# To assess the hypothesis that activation of the TGF-β signaling pathway is the mechanism underlying albumin-induced epileptogenesis, we activated this pathway directly by incubating neocortical slices with TGF-β1 (10 ng/mL) in artificial cerebrospinal fluid (aCSF) and performed electrophysiological recordings. These recordings were compared to those of slices treated with a solution containing serum levels of electrolytes and 0.1 mM albumin (aSERUM, previously shown to induce epileptogenesis; Ivens et al., 2007), albumin in aCSF, or aCSF (control). […] When albumin was added to the control aCSF solution, epileptiform activity was recorded in response to stimulation of the white matter (n=8 out of 12 slices, 6 animals). Importantly. TGF-β1 treatment was sufficient to recapitulate epileptiform activity similar to that seen following treatment with aSERUM and albumin in aCSF (n=5 out of 5 slices, 4 animals; n=7 out of 9 slices, 3 animals; and n=8 out of 12 slices, 6 animals, respectively). In all three cases, the evoked epileptiform activity, was all-or-none in nature, paroxysmal and prolonged, similar to that seen following BBB opening with bile salts (Ivens et al., 2007; Seiffert et al., 2004) and typical to that observed in acute models of epilepsy (Gutnick et al., 1982).
# To further confirm that the TGF-β1 induced epileptiform activity was dependent on the TGF-βR mediated pathway, we performed additional trials of the above experiments in the presence of two TGF-βR blockers (SB431542, the TGF-βRI kinase activity inhibitor and TGF-βRII antibody).
# [4] = during albumin-induced epileptogenesis
substance,measurement,setting,value
"albumin: bovine serum albumin, used to induce epileptogenesis",EEG complexity (fractal dimension),[1]; [4],decrease
same,EEG signal harmony,[1]; [4],increase
same,number of seizure like events (SLEs),[1]; one week following treatment,sharp increase
same,"[K+]o accumulation during neuronal activation, level reached",[2],6.7 mM
same,integral of the field potential,"[3]; inducer alone, without TGF-βR blockers",117.2±35.4 mV*ms
same,"evoked epileptiform activity in response to stimulation of the white matter, slices showing it",[3]; slices incubated with the inducer,8 out of 12
